For series [1], the system named is parental (untransformed) Ba/F3 cells. Description: Ba/F3 cell proliferation, BAF3/WT (parental, IL3). It is filed as cell-based, murine. The settings on record: Mus musculus, inhibition of proliferation of parental cells with IL3, 48 hours, Bright-Glo luminescence. The procedure: (§1) Test compounds were dissolved in DMSO (10 mM) and transferred into 1.4 mL flat bottom or V-shaped Matrix tubes carrying a unique 2D matrix chip by individual compound hubs. The numbers of these chips were distinctively linked to the individual compound identification numbers. The stock solutions were stored at −20° C. if not used immediately. For the test procedure the vials were defrosted and identified by a scanner whereby a working sheet is generated that guides the subsequent working steps.
(§2) Compound dilutions were made in 384 well plates. This format enabled the assay of maximally 28 individual test compounds at 11 concentrations (single points) including 2 reference compounds. The dilution protocol included the production of pre-dilution plates, master plates and assay plates: • Compound plates: 30 μL of individual compound (10 mM) DMSO solution including reference compound were transferred into columns 1 and 13 of a 384 well plate. 20 μL of DMSO were added to the rest of the wells and the compounds were serially diluted (1:3) by transferring 10 μL from a well in column 1 or 13 to the next well in column 2 or 14 respectively and successively with the help of a Minitrack robot. • Assay plates: Identical assay plates were then prepared by adding 50 nL each of compound dilutions of the compound plates into 384-well “assay plates”. In the following the compounds were mixed with 50 μL of assays components (cells or enzyme) and tested for their inhibitory activity.
Compounds were tested for their ability to inhibit the proliferation of wt Ba/F3 cells and Ba/F3 cells transformed with constitutively expressed luciferase reporter and BCR-ABL or Tel-FMS or other Tel fusion kinases (EGFR, JAK2, ALK, BMX, FGFR3, FGFR4, FGR2, FLT1, FLT3, IGF1R, INSR, KDR, KIT, LCK, LYN, MEK, MET, PDGFRα, PDGFRβ, RET, RON, ROS, SRC, SYK, TIE and TYRO) or BRafV600E. Parental Ba/F3 cells were maintained in media containing recombinant mouse IL3 and the kinase transformed Ba/F3 cells were maintained in media without IL-3. 7.5 nl of compounds were spotted to each well of 1536-well assay plates by Liquid handling System Echo 555 (Labcyte). 700 cells were then plated into each well of the assay plates in 7 uL culture media per well and compounds were tested at 0.17 nM to 10 uM in 3-fold serial dilutions. The cells were then incubated for 48 hours at 37° C. 3 uL of Bright-Glo® (Promega) was added to each well and the plates were read using ViewLux (PerkinElmer).
The cell line used is the luciferase expressing Ba/F3 murine hematopoietic progenitor cell line transformed with human Tel-TrkA, Tel-TrkB or Tel-TrkC cDNAs (Ba/F3 EN A/B/C). These cells maintained in RPMI/10% fetal bovine serum (RPMI/FCS) supplemented with penicillin 50 mg/mL, streptomycin 50 mg/mL and L-glutamine 200 mM. Untransformed Ba/F3 cells were similarly maintained with the addition 5 ng/ml of murine recombinant IL3. 50 μl of a Ba/F3 or Ba/F3 EN A/B/C cell suspension were plated in Greiner 384 well microplates (white)) at a density of 2000 cells per well. 50 nl of serially diluted test compound (10-0.0001 mM in DMSO solution) is added to each well. The cells were incubated for 48 hours at 37° C., 5% CO2. 25 μl of Bright Glo® (Promega) luciferase substrate is added to each well. The emited luminiscence is quantified using ViewLux (PerkinElmer). IC50 values were calculated by linear regression analysis of the percentage inhibition of each compound at 11 concentrations. […]

The target in series [2] is T1, Ba/F3 cells transformed with human Tel-TrkA (Homo sapiens, UniProt P04629).
T1 construct: expressed in transfected cells; host or cells: luciferase expressing Ba/F3 murine hematopoietic progenitor cell line; the other entry of the earlier key: ETV6 (P41212, Transcription factor ETV6)
Description: Ba/F3 cell proliferation, Ba/F3 Tel-TrkA. It is filed as cell-based. The settings on record: inhibition of proliferation, 48 hours, Bright-Glo luminescence; read-out: Ba/F3Tel-TrkA. How it is done:
as §1, §2
The cell line used is the luciferase expressing Ba/F3 murine hematopoietic progenitor cell line transformed with human Tel-TrkA, Tel-TrkB or Tel-TrkC cDNAs (Ba/F3 EN A/B/C). These cells maintained in RPMI/10% fetal bovine serum (RPMI/FCS) supplemented with penicillin 50 mg/mL, streptomycin 50 mg/mL and L-glutamine 200 mM. Untransformed Ba/F3 cells were similarly maintained with the addition 5 ng/ml of murine recombinant IL3. 50 μl of a Ba/F3 or Ba/F3 EN A/B/C cell suspension were plated in Greiner 384 well microplates (white)) at a density of 2000 cells per well. 50 nl of serially diluted test compound (10-0.0001 mM in DMSO solution) is added to each well. The cells were incubated for 48 hours at 37° C., 5% CO2. 25 μl of Bright Glo® (Promega) luciferase substrate is added to each well. The emited luminiscence is quantified using ViewLux (PerkinElmer). IC50 values were calculated by linear regression analysis of the percentage inhibition of each compound at 11 concentrations.
In certain examples compounds of Formula (I) have IC50 values from 0.1 nM 1 μM. In other examples, compounds of Formula (I) have IC50 values from 0.0001 μM to 0.8 μM. In other examples, compounds of Formula (I) have IC50 values from 0.0001 μM to 0.6 μM. In other examples, compounds of Formula (I) have IC50 values from 0.0001 μM to 0.4 μM. In other examples, compounds of Formula (I) have IC50 values from 0.0001 μM to 0.2 μM. In other examples, compounds of Formula (I) have IC50 values from 0.0001 μM to 0.1 μM. In other examples, compounds of Formula (I) have IC50 values from 0.0001 μM to 0.08 μM. In other examples, compounds of Formula (I) have IC50 values from 0.0001 μM to 0.06 μM. In other examples, compounds of Formula (I) have IC50 values from 0.0001 μM to 0.04 μM. In other examples, compounds of Formula (I) have IC50 values from 0.0001 μM to 0.02 μM. In other examples, compounds of Formula (I) have IC50 values from 0.0001 μM to 0.01 μM. In other examples, compounds of Formula (I) have IC50 values from 0.01 μM to 1 μM.

Series [3] concerns the target T2, Ba/F3 cells co-expressing full length rTrkA and mNGF (Rattus norvegicus, UniProt P35739).
T2 construct: co-expressing full length rTrkA and mNGF; expressed in transfected cells; host or cells: Ba/F3 murine hematopoietic progenitor cells
Put plainly: Ba/F3 cell proliferation, BaF3/TRKA-NGF. It is filed as cell-based. The settings on record: inhibition of proliferation, 48 hours, Bright-Glo luminescence.

Some results are limits rather than exact numbers.

T1 sequence (P04629 510-796 limits assumed): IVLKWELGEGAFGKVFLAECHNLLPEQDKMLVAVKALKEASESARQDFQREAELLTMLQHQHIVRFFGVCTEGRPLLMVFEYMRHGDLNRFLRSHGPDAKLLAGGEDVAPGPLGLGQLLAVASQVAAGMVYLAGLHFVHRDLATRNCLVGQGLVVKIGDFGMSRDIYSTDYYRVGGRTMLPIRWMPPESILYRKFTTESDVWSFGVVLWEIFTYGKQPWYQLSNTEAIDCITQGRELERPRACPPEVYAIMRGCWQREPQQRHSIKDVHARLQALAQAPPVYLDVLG
T2 sequence (P35739 33-799): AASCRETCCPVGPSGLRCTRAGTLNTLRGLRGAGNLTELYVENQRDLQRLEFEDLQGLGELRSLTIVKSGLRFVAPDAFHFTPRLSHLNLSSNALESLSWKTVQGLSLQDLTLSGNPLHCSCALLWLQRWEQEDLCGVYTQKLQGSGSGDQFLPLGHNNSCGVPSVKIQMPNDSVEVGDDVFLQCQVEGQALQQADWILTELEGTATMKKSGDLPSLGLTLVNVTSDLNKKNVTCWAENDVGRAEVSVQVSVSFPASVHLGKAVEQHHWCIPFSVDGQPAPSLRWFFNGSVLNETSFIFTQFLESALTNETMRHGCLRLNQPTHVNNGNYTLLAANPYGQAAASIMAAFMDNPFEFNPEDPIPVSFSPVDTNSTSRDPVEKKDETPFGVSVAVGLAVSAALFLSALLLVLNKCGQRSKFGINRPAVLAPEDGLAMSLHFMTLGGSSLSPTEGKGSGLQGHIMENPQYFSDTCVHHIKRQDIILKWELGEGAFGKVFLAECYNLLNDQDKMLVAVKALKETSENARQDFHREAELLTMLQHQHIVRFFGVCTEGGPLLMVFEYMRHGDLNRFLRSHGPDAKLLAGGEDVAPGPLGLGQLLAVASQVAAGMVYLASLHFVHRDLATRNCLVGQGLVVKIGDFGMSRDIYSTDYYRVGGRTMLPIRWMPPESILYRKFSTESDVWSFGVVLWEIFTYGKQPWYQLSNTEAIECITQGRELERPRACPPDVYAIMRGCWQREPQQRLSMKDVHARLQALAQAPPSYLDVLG
T2 sequence (P01139 122-241 partner): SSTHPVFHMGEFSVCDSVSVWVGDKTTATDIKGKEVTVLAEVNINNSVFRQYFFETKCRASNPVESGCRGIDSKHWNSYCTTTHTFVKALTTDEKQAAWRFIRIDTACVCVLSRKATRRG

What is called melting point is the temperature of the solid-liquid transition. Regarding `N#Cc1cc(F)cc([C@H]2C[C@H](F)CN2c2ccn3ncc(C(N)=O)c3c2)c1` [Example X-10, 5-((2R,4S)-2-(3-cyano-5-fluorophenyl)-4-fluoropyrrolidin-1-yl)pyrazolo[1,5-a]pyridine-3-carboxamide], the melting point is 140 °C (dec.). Further, the IC50 in series [1] was above 10000 nM. Further, the IC50 in series [2] is 5 nM. Further, the IC50 in series [3] was 8 nM.
`O=C(NCCO)c1cnn2ccc(N3C[C@@H](F)C[C@@H]3c3cccc(F)c3)cc12` [Example X-17, 5-[(2R,4S)-4-fluoro-2-(3-fluorophenyl)pyrrolidin-1-yl]-N-(2-hydroxyethyl)pyrazolo[1,5-a]pyridine-3-carboxamide]: the figures for the IC50 in series [1], in series [2] and in series [3] were above 10000 nM, 9 nM and 14 nM, respectively.
On the same counts, the results for `CC(C)NC(=O)c1ccc(F)cc1C1CC(F)(F)CN1c1ccn2ncc(C(N)=O)c2c1` (stereo not shown) [Example X-18, 5-(4,4-difluoro-2-{5-fluoro-2-[(propan-2-yl)carbamoyl]phenyl}pyrrolidin-1-yl)pyrazolo[1,5-a]pyridine-3-carboxamide] are above 10000 nM, 7 nM and 7 nM.
On the same counts, the results for `CCOC(=O)c1cnn2ccc(N3C[C@@H](C#N)C[C@@H]3c3cccc(F)c3)cc12` [Example X-19, ethyl 5-((2R,4S)-4-cyano-2-(3-fluorophenyl)pyrrolidin-1-yl)pyrazolo[1,5-a]pyridine-3-carboxylate] are above 10000 nM, 7 nM and 7 nM.
As for `CCOC(=O)c1cnn2ccc(N3C[C@@H](C(N)=O)C[C@@H]3c3cccc(F)c3)cc12` [Example X-20, ethyl 5-((2R,4S)-4-carbamoyl-2-(3-fluorophenyl)pyrrolidin-1-yl)pyrazolo[1,5-a]pyridine-3-carboxylate], the IC50 in series [1] was above 10000 nM; in series [2], 2 nM; in series [3] it was 2 nM.
On to `O=C(Nc1cnn2ccc(N3C[C@@H](F)C[C@@H]3c3cccc(F)c3)cc12)OCc1ccccc1` [Example X-21, benzyl (5-((2R,4S)-4-fluoro-2-(3-fluorophenyl)pyrrolidin-1-yl)pyrazolo[1,5-a]pyridin-3-yl)carbamate], for which the figures for the IC50 in series [1], in series [2] and in series [3] were above 10000 nM, 177 nM and 179 nM, respectively.
Turning to `O=C(Nc1ccccc1)c1cnn2ccc(N3C[C@@H](F)C[C@@H]3c3cccc(F)c3)cc12` [Example X-22, 5-[(2R,4S)-4-fluoro-2-(3-fluorophenyl)pyrrolidin-1-yl]-N-phenylpyrazolo[1,5-a]pyridine-3-carboxamide], the IC50 in series [1] is above 10000 nM; in series [2] it was 11 nM; in series [3] it was 17 nM.
Regarding `NC(=O)Nc1cnn2ccc(N3C[C@@H](F)C[C@@H]3c3cccc(F)c3)cc12` [Example X-23, 1-(5-((2R,4S)-4-fluoro-2-(3-fluorophenyl)pyrrolidin-1-yl)pyrazolo[1,5-a]pyridin-3-yl)urea], the IC50 in series [1] is above 10000 nM; in series [2], 154 nM; in series [3] it was 176 nM.
For `NC(=O)c1cnn2ccc(N3C[C@H](O)C[C@@H]3c3cccc(F)c3)cc12` [Example X-24, 5-[(2R,4R)-2-(3-fluorophenyl)-4-hydroxypyrrolidin-1-yl]pyrazolo[1,5-a]pyridine-3-carboxamide], in that order: above 10000 nM, 395 nM and 119 nM.
On the same counts, the results for `N#C[C@H]1C[C@H](c2cccc(F)c2)N(c2ccn3ncc(C(N)=O)c3c2)C1` [Example X-25, 5-((2R,4S)-4-cyano-2-(3-fluorophenyl)pyrrolidin-1-yl)pyrazolo[1,5-a]pyridine-3-carboxamide] are above 10000 nM, 125 nM and 58 nM.
For `NC(=O)c1cnn2ccc(N3C[C@@H](C(N)=O)C[C@@H]3c3cccc(F)c3)cc12` [Example X-26, 5-((2R,4S)-4-carbamoyl-2-(3-fluorophenyl)pyrrolidin-1-yl)pyrazolo[1,5-a]pyridine-3-carboxamide], in that order: above 10000 nM, 443 nM and 232 nM.
Regarding `N#Cc1cc(F)cc([C@@H]2C[C@H](F)CN2c2ccn3ncc(C(N)=O)c3c2)c1` [Example X-27], the IC50 in series [1], in series [2] and in series [3] was above 10000 nM throughout.
As to `Cc1ccc(C)c(C2CCCN2c2ccn3ncc(C(N)=O)c3c2)c1` (stereo not shown) [Example X-28], the IC50 in series [1] was above 10000 nM; in series [2] it was 2140 nM; in series [3] it was 1090 nM.
For `CN1CCN(c2ccn3ncc(C(N)=O)c3c2)C(c2ccccc2)C1` (stereo not shown) [Example X-29], in that order: above 10000 nM, above 10000 nM and above 10000 nM.
